Assay results as given in PMC6039181, “An expanded allosteric network in PTP1B by multitemperature crystallography, fragment screening, and covalent tethering” (eLife, 2018).

Biological target: T1, PTP1B (Homo sapiens, UniProt P18031, C32S/C92V/K197C)
T1 construct: gene PTPN1; residues 1–321
T1 sequence (P18031 1-321 C32S/C92V/K197C): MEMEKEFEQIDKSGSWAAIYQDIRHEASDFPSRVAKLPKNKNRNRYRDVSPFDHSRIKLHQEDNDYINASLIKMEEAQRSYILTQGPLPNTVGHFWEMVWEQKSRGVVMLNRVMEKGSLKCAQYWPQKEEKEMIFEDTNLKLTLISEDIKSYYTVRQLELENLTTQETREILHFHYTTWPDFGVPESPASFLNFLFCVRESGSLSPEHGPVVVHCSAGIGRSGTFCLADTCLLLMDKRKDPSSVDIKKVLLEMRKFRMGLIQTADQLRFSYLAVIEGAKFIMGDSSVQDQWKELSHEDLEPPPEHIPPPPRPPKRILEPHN
Assay: crystal structure of tethered complex ([…] Å); mass-spectrometry tethering EC50 […]; pNPP inhibition Ki
Assay type: biochemical

## CN(C)CCSSCC(=O)Nc1cc(-c2ccc(F)cc2F)ccc1O [compound 2, 2]
  Ki: 7.1 ± 1.1 µM
